Experimental data as given in ChEMBL document CHEMBL3627664, “Towards the evaluation in an animal disease model: Fluorinated 17β-HSD1 inhibitors showing strong activity towards both the human and the rat enzyme” (Eur J Med Chem, 2015).
pIC50: −log10 of the molar value.

The compounds below were run against T1, 17-beta-hydroxysteroid dehydrogenase type 1 (Homo sapiens, UniProt P14061).
T1 sequence (P14061 whole entry): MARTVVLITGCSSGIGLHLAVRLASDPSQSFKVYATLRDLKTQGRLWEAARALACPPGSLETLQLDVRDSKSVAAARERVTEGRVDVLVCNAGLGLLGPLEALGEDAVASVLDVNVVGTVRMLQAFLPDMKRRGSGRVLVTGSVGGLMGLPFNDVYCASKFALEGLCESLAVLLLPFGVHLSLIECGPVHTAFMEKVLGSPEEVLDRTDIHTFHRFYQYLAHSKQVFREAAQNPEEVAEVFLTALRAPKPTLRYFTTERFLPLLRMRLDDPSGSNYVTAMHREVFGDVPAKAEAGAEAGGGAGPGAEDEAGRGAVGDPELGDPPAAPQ

Structure (SMILES)	pIC50
N#Cc1ccc(S(=O)(=O)Nc2cccc(-c3ccc(C(=O)c4cccc(O)c4)s3)c2)cc1	7.25
O=C(c1ccc(F)c(O)c1)c1cc2cc(O)ccc2s1	7.05
O=C(c1cccc(O)c1)c1ccc(-c2ccc(NS(=O)(=O)c3ccc(Br)cc3OC(F)(F)F)cc2)s1	6.77
Cc1ccc(C(=O)c2ccc(-c3cccc(O)c3)s2)cc1O	7.34
O=C(c1cccc(O)c1)c1ccc(-c2cccc(O)c2)s1	7.16
O=C(c1ccc(C(F)(F)F)c(O)c1)c1ccc(-c2cccc(O)c2)s1	7.42

Now those with a higher pIC50, led by results:

pIC50	Structure (SMILES)
7.68	N#Cc1cccc(S(=O)(=O)Nc2cccc(-c3c(O)ccc4cc(-c5cccc(O)c5)ccc34)c2)c1
7.46	COc1cccc(S(=O)(=O)Nc2cccc(-c3ccc(C(=O)c4cccc(O)c4)s3)c2)c1
7.92	Cc1ccc(S(=O)(=O)Nc2cccc(-c3ccc(C(=O)c4cccc(O)c4)s3)c2)cc1
7.48	O=C(Nc1cccc(-c2ccc(C(=O)c3cccc(O)c3)s2)c1)c1cccc(O)c1
7.77	Cc1ccccc1S(=O)(=O)Nc1cccc(-c2ccc(C(=O)c3cccc(O)c3)s2)c1
7.92	O=C(c1cccc(O)c1)c1cc2ccc(O)cc2s1
7.64	N#Cc1cccc(S(=O)(=O)Nc2cccc(-c3ccc(C(=O)c4cccc(O)c4)s3)c2)c1
